Experimental data: patent US11542316B2, “S-Arrestin peptides and therapeutic uses thereof” (APITOPE INTERNATIONAL NV, priority 2017, dated 2023)
Ends that are not written are not given here.

Target: T1, MHC II molecules present on dendritic cells (DC) (Homo sapiens, UniProt P01903+P01911)
T1 construct: from tissue; host or cells: CD11c+ dendritic cells from spleens of DR2tg mice (DRA*0101 and DRB1*1501 cDNAs under a mouse MHCII promoter, no mouse MHC class II)
Assay: In vivo presentation experiment, DR2tg mice
Conditions: 100 μg peptide s.c., CD11c+ cells harvested after 2 hours, co-culture 48 hours
From the text: FIG. 14: In vivo presentation protocol. Mice are immunized with peptide/CFA and a T cell line is established. For this, ten days after immunization the LN and spleens are harvested and cultured with different concentrations of peptide; 2×10^6 cells/ml APC+1×10^6 cells/ml CD4^+ cells per well. At day 7 the cells are re-stimulated with fresh APC and the same concentrations of peptide. After 14 to 21 days, CD4^+ cells are isolated from these cultures by magnetic bead isolation. These CD4^+ cells are co-cultured with CD11c^+ (dendritic) cells isolated by magnetic bead isolation from spleens of mice s.c. injected with peptide 2 hours before. Control mice receive a s.c. injection of PBS. After 48 hours, supernatant is collected and cytokine response (IFN-γ) is measured. […]
FIG. 17: In vivo presentation of HIP-9FL nested peptides in DR2 mice. […] After 48 hours, supernatant was collected and IFN-γ production was measured by ELISA. […]
DR3tg or DR2tg mice were injected with 100 μg of peptide in 100 μl PBS subcutaneously (s.c.) in the flank. […] After 48 hours, supernatant of these co-cultures was collected and CD4^+ T cell activation was analysed by IFN-γ ELISA (R&D Systems, Abingdon, UK). In a parallel experiment, CD4^+ T cell responses towards peptide added in vitro were assessed to make sure the T cells recognize the peptides presented by the CD11c^+ cells.

T1 sequence (P01903 26-254): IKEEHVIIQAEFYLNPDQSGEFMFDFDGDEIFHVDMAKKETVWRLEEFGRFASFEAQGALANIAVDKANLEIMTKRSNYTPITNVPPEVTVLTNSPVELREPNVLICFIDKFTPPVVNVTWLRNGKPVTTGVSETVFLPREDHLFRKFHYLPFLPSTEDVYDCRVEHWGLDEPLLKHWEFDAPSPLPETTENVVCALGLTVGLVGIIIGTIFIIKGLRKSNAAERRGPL
T1 sequence (P01911 30-266): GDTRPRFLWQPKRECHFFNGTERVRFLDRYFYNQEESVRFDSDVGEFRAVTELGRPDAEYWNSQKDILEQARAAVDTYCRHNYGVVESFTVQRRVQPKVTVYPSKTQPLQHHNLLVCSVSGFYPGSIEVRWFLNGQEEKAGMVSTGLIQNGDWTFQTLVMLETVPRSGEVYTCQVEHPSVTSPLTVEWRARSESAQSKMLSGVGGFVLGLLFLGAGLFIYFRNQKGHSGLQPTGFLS

## KKKAFVEQVANVVLKKK-NH2 [HIP-9K1-KKK, KKKAFVEQVANVVLKKK]
  picked up and presented by MHC II on dendritic cells to peptide-specific T cells (IFN-γ production): presented by DC to T cells
